Assay results taken from US8192962B2, “Processes for detecting toxic substances” (Daikin Industries, Ltd., priority 2001, dated 2012).

System: Transport facilitation protein genes
Assay: DNA chip mRNA expression in yeast, transport facilitation protein genes (Table 5)
Type: cell-based, Saccharomyces cerevisiae S288C
Procedure, shortened: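 Untreated cultures served as reference for log-phase S288C yeast given a growth-inhibiting, non-lethal toxicant dose for 2 h at 25° C. in YPD. Gene expression was measured on a whole-genome DNA chip from Cy3/Cy5-labeled cDNA.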

C=CC=O [(14), acrolein]
The level of expressed mRNA in the presence of chemical substance/The level of expressed mRNA in the absence of chemical substance (yeast gene YHL035C): 0.8
The level of expressed mRNA in the presence of chemical substance/The level of expressed mRNA in the absence of chemical substance (yeast gene YHL040C): 1.1
The level of expressed mRNA in the presence of chemical substance/The level of expressed mRNA in the absence of chemical substance (yeast gene YHL047C): 0.5
The level of expressed mRNA in the presence of chemical substance/The level of expressed mRNA in the absence of chemical substance (yeast gene YHR026W): 1.3
The level of expressed mRNA in the presence of chemical substance/The level of expressed mRNA in the absence of chemical substance (yeast gene YHR092C): 1.6
The level of expressed mRNA in the presence of chemical substance/The level of expressed mRNA in the absence of chemical substance (yeast gene YHR094C): 0.6
The level of expressed mRNA in the presence of chemical substance/The level of expressed mRNA in the absence of chemical substance (yeast gene YHR175W): 0.7
The level of expressed mRNA in the presence of chemical substance/The level of expressed mRNA in the absence of chemical substance (yeast gene YIL006W): 1.0
The level of expressed mRNA in the presence of chemical substance/The level of expressed mRNA in the absence of chemical substance (yeast gene YIL022W): 0.6
The level of expressed mRNA in the presence of chemical substance/The level of expressed mRNA in the absence of chemical substance (yeast gene YIL056W): 1.0
The level of expressed mRNA in the presence of chemical substance/The level of expressed mRNA in the absence of chemical substance (yeast gene YIL088C): 1.2
The level of expressed mRNA in the presence of chemical substance/The level of expressed mRNA in the absence of chemical substance (yeast gene YJL034W): 0.6
The level of expressed mRNA in the presence of chemical substance/The level of expressed mRNA in the absence of chemical substance (yeast gene YJL212C): 0.8
The level of expressed mRNA in the presence of chemical substance/The level of expressed mRNA in the absence of chemical substance (yeast gene YJL219W): 1.1
The level of expressed mRNA in the presence of chemical substance/The level of expressed mRNA in the absence of chemical substance (yeast gene YJR077C): 0.7
The level of expressed mRNA in the presence of chemical substance/The level of expressed mRNA in the absence of chemical substance (yeast gene YJR106W): 0.9
The level of expressed mRNA in the presence of chemical substance/The level of expressed mRNA in the absence of chemical substance (yeast gene YJR121W): 0.7
The level of expressed mRNA in the presence of chemical substance/The level of expressed mRNA in the absence of chemical substance (yeast gene YKL016C): 1.6
The level of expressed mRNA in the presence of chemical substance/The level of expressed mRNA in the absence of chemical substance (yeast gene YKL146W): 1.0
The level of expressed mRNA in the presence of chemical substance/The level of expressed mRNA in the absence of chemical substance (yeast gene YKL221W): 1.4
The level of expressed mRNA in the presence of chemical substance/The level of expressed mRNA in the absence of chemical substance (yeast gene YKR039W): 1.2
The level of expressed mRNA in the presence of chemical substance/The level of expressed mRNA in the absence of chemical substance (yeast gene YKR067W): 1.3
The level of expressed mRNA in the presence of chemical substance/The level of expressed mRNA in the absence of chemical substance (yeast gene YLL028W): 0.7
The level of expressed mRNA in the presence of chemical substance/The level of expressed mRNA in the absence of chemical substance (yeast gene YLR081W): 1.0
The level of expressed mRNA in the presence of chemical substance/The level of expressed mRNA in the absence of chemical substance (yeast gene YLR092W): 1.4
The level of expressed mRNA in the presence of chemical substance/The level of expressed mRNA in the absence of chemical substance (yeast gene YLR295C): 1.2
The level of expressed mRNA in the presence of chemical substance/The level of expressed mRNA in the absence of chemical substance (yeast gene YLR348C): 1.0
The level of expressed mRNA in the presence of chemical substance/The level of expressed mRNA in the absence of chemical substance (yeast gene YLR378C): 0.4
The level of expressed mRNA in the presence of chemical substance/The level of expressed mRNA in the absence of chemical substance (yeast gene YMR011W): 0.6
The level of expressed mRNA in the presence of chemical substance/The level of expressed mRNA in the absence of chemical substance (yeast gene YMR162C): 1.0
The level of expressed mRNA in the presence of chemical substance/The level of expressed mRNA in the absence of chemical substance (yeast gene YMR203W): 0.7
The level of expressed mRNA in the presence of chemical substance/The level of expressed mRNA in the absence of chemical substance (yeast gene YNL055C): 0.9
The level of expressed mRNA in the presence of chemical substance/The level of expressed mRNA in the absence of chemical substance (yeast gene YNL259C): 1.4
The level of expressed mRNA in the presence of chemical substance/The level of expressed mRNA in the absence of chemical substance (yeast gene YNR072W): 1.0
The level of expressed mRNA in the presence of chemical substance/The level of expressed mRNA in the absence of chemical substance (yeast gene YOL119C): 2.4
The level of expressed mRNA in the presence of chemical substance/The level of expressed mRNA in the absence of chemical substance (yeast gene YOL156W): 0.9
The level of expressed mRNA in the presence of chemical substance/The level of expressed mRNA in the absence of chemical substance (yeast gene YOL163W): 1.2
The level of expressed mRNA in the presence of chemical substance/The level of expressed mRNA in the absence of chemical substance (yeast gene YOR035C): 0.9
The level of expressed mRNA in the presence of chemical substance/The level of expressed mRNA in the absence of chemical substance (yeast gene YOR130C): 1.3
The level of expressed mRNA in the presence of chemical substance/The level of expressed mRNA in the absence of chemical substance (yeast gene YOR153W): 0.3
The level of expressed mRNA in the presence of chemical substance/The level of expressed mRNA in the absence of chemical substance (yeast gene YOR270C): 0.7
The level of expressed mRNA in the presence of chemical substance/The level of expressed mRNA in the absence of chemical substance (yeast gene YOR273C): 0.5
The level of expressed mRNA in the presence of chemical substance/The level of expressed mRNA in the absence of chemical substance (yeast gene YOR316C): 1.0
The level of expressed mRNA in the presence of chemical substance/The level of expressed mRNA in the absence of chemical substance (yeast gene YOR328W): 0.8
The level of expressed mRNA in the presence of chemical substance/The level of expressed mRNA in the absence of chemical substance (yeast gene YOR332W): 1.1
The level of expressed mRNA in the presence of chemical substance/The level of expressed mRNA in the absence of chemical substance (yeast gene YOR348C): 1.2
The level of expressed mRNA in the presence of chemical substance/The level of expressed mRNA in the absence of chemical substance (yeast gene YPL036W): 0.6
The level of expressed mRNA in the presence of chemical substance/The level of expressed mRNA in the absence of chemical substance (yeast gene YPL134C): 1.4
The level of expressed mRNA in the presence of chemical substance/The level of expressed mRNA in the absence of chemical substance (yeast gene YPL224C): 1.4
The level of expressed mRNA in the presence of chemical substance/The level of expressed mRNA in the absence of chemical substance (yeast gene YPL265W): 1.1
The level of expressed mRNA in the presence of chemical substance/The level of expressed mRNA in the absence of chemical substance (yeast gene YPL271W): 1.3
The level of expressed mRNA in the presence of chemical substance/The level of expressed mRNA in the absence of chemical substance (yeast gene YPR124W): 0.4
The level of expressed mRNA in the presence of chemical substance/The level of expressed mRNA in the absence of chemical substance (yeast gene YPR192W): 0.7
The level of expressed mRNA in the presence of chemical substance/The level of expressed mRNA in the absence of chemical substance (yeast gene YPR194C): 1.0
